What was measured:
[1] = target: PI3Kδ (murine p110δ-p85α) (Mus musculus, UniProt O35904); test: biochemical
Text: All IC50 values represent geometric mean values of a minimum of four determinations.

[2] = test system: broad panel of 351 kinases and 44 mutant kinases; test: KINOMEscan kinase panel; assay type: binding; details: 10 μM idelalisib
Experimental: The enzymatic activity of the class I PI3K isoforms was measured using a time-resolved FRET assay that monitors formation of the product PIP3, because it competes with fluorescently labeled PIP3 for binding to the GRP-1 pleckstrin homology domain protein. An increase in PIP3 product results in a decrease in time-resolved FRET signal as the labeled fluorophore is displaced from the GRP-1. […] After an assay reaction time of 30 min at 25 °C, reactions were terminated with a final concentration of 10 mM EDTA, 10 nM labeled PIP3, and 35 nM europium-labeled GRP-1 detector protein before reading time-resolved FRET on an Envision plate reader (excitation, 340 nm; emission, 615/665 nm; delay, 100 μs; and read window, 500 μs). […] All IC50 values represent geometric mean values of a minimum of four determinations. These assays generally produced results within 3-fold of the reported mean.

[3] = target: recombinant PI3Kδ (p110δ-p85α) (Mus musculus, UniProt O35904); test: Competition of idelalisib with ATP (HTRF kinetic assay); assay type: biochemical, murine
Experimental: After a 1-h preincubation period, PIP2 was added to a final concentration of 10 μM, and ATP was added at concentrations from 0 to 1.5 mM to initiate the reaction. After 45 min, the reactions were quenched with a stop solution from the assay kit. A detection solution was then added to each well, and the mixture was further incubated for 2 h. Time-resolved fluorescence was measured with a Tecan Infinite M1000 plate reader, using an excitation wavelength of 330 nm and emission wavelengths of 620 and 665 nm. The ratio of emission at 665 nm to that at 620 nm was used as the measure of reaction rate. […] Values of α ≫ 1 are indicative of competitive inhibition, values of α approximately equal to 1 imply noncompetitive inhibition, and values of α ≪ 1 are characteristic of uncompetitive inhibitors ([22]).

PI3Kδ-p85α = PI3Kδ-p85α (Mus musculus, UniProt O35904); test: Reversibility (dilution) assay; assay type: biochemical, murine; details: preincubation 1 h with 400 nM idelalisib or 100 nM wortmannin; 10 μM PIP2, 300 μM ATP
Experimental: One microliter of solution was transferred to 99 μl of reaction buffer solution containing 10 μM PIP2 and 300 μM ATP to initiate the enzyme reaction. At 5-min intervals, samples from each reaction were quenched with HTRF stop solution, and fluorescence was measured using the detection kit as described above. The reactions were measured over a time frame of 40 min. […] The data were analyzed with linear least square fits to obtain reaction rates.

ΔABD-p110δ = target: T1, ΔABD-p110δ (Mus musculus, UniProt O35904); test: Surface plasmon resonance binding assay (Biacore); parameters: species or system murine; details: for dissociation from the protein during the dissociation phase: idelalisib 0.12-30 nM, wortmannin 2 μM, 1-hour dissociation phase
T1 construct: digested with the rTEV protease to remove the iSH2 and ABD domains; made in house
T1 sequence (O35904 106-1043 limits assumed): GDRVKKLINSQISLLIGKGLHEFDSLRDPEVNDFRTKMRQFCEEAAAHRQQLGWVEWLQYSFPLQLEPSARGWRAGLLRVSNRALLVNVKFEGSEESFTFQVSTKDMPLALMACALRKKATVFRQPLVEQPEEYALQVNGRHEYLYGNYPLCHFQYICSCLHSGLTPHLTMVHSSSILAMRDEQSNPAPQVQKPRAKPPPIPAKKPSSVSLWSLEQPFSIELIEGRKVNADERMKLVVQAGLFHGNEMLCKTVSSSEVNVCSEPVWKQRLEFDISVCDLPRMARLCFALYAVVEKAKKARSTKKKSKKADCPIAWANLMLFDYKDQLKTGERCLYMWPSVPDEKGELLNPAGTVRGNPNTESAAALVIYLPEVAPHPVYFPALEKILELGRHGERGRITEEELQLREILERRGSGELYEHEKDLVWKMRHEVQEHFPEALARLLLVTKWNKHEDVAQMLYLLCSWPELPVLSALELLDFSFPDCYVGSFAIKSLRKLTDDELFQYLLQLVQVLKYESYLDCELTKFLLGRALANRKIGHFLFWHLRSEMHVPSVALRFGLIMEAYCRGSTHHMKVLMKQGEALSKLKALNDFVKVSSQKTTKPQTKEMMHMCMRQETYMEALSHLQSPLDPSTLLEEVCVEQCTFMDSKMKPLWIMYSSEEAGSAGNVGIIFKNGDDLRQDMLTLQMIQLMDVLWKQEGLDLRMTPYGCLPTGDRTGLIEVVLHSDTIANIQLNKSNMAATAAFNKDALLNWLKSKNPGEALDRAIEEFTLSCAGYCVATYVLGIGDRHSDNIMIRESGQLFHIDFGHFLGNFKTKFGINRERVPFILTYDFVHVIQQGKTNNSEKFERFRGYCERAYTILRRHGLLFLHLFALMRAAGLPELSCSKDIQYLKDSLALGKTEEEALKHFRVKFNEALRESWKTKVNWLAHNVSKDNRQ
Experimental: ΔABD-p110δ was minimally biotinylated using a 1:1 molar ratio of protein to EZ-link sulfo-NHS-LC-LC-biotin (ThermoScientific; catalog no. 21338). […] Following incubation for 1 h at 4 °C, the mixture was desalted using a Zeba spin desalting column (ThermoScientific; catalog no. 89883) pre-equilibrated in Biacore running buffer (25 mM HEPES, pH 7.5, 150 mM NaCl, 5 mM MgCl2, 1 mM TCEP, 5% glycerol, 0.05% P20) to remove any unreacted biotin. […] Characterization of inhibitor binding and dissociation was performed using a Biacore T100 instrument and research grade series S CM5 sensor chips (GE Healthcare; catalog no. BR-1005-30). Before use, CM5 sensor chips were preconditioned using two 6-s pulses each of 100 mM HCl, 50 mM NaOH, 0.5% (w/v) SDS, and deionized H2O at a flow rate of 100 μl/min. Approximately 15,000 response units (RU) of neutravidin was immobilized on all four surfaces via standard amine-coupling chemistry (GE Healthcare; catalog no. BR-1000-50) in HBS-P buffer (10 mM HEPES, pH 7.4, 150 mM NaCl, 0.005% P20). Biotinylated protein was injected over separate flow cells to achieve capture levels ranging between 6,000 and 14,000 response units. Any remaining free sites on neutravidin were blocked with two 5-min pulses of 50 μM EZ-Link-Amine-PEG2-Biotin (ThermoScientific; catalog no. 21346) at a flow rate of 30 μl/min. […] Wortmannin was injected on a separate sensor chip at a concentration of 2 μM for an 8-min association phase and a 1-hour dissociation phase. At the end of each injection cycle, the injection needle and tubing were washed with 50% DMSO using the “extra wash” command. A five-point DMSO concentration series (ranging from 0.8% to 1.2% DMSO) was included to generate a calibration curve to correct for excluded volume effects. Sensorgrams were double-referenced and corrected for solvent effects using Scrubber 2.0c software (Biologic Software, Campbell, Australia) but fitted using both Scrubber and CLAMP software ([23]).
The data were fitted using a mass transport model ([24], [25]). Three independent surfaces were globally fit for the association and dissociation rates ka and […], while floating the maximum binding response (Rmax) and mass transport (kt) constant for each surface. […] For wortmannin, only an off-rate analysis was performed.

[4] = biotinylated p110δ captured on neutravidin, mass transport model, global fit

Sequence of recombinant PI3Kδ (p110δ-p85α) (O35904 whole entry): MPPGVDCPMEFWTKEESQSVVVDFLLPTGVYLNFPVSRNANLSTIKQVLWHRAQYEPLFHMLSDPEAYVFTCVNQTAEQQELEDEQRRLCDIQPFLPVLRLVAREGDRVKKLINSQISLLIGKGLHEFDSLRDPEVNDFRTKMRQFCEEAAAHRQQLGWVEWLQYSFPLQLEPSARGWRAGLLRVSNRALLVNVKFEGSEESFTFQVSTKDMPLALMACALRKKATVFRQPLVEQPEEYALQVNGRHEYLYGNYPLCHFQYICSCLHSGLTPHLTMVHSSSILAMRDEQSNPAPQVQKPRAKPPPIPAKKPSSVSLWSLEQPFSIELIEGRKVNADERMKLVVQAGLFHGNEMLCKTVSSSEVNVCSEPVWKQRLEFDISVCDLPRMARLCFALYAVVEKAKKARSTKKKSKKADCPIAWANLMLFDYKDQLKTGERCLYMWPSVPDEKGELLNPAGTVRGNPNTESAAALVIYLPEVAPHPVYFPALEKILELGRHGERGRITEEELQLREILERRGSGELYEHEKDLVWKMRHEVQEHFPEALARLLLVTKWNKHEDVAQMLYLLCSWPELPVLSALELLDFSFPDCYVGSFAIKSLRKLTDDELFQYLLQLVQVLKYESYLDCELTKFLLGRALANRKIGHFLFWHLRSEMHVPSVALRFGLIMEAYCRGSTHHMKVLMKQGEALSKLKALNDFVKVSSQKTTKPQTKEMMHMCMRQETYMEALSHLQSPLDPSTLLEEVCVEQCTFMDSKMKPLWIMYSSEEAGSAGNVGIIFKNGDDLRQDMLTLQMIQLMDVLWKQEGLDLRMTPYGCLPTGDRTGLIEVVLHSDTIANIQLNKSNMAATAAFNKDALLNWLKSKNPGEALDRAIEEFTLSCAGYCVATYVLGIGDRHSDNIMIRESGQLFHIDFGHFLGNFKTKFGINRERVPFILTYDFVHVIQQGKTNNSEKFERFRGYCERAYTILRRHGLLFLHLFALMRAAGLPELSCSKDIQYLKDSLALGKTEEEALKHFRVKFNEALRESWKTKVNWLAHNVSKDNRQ
Sequence of recombinant PI3Kδ (p110δ-p85α) (P27986 whole entry partner): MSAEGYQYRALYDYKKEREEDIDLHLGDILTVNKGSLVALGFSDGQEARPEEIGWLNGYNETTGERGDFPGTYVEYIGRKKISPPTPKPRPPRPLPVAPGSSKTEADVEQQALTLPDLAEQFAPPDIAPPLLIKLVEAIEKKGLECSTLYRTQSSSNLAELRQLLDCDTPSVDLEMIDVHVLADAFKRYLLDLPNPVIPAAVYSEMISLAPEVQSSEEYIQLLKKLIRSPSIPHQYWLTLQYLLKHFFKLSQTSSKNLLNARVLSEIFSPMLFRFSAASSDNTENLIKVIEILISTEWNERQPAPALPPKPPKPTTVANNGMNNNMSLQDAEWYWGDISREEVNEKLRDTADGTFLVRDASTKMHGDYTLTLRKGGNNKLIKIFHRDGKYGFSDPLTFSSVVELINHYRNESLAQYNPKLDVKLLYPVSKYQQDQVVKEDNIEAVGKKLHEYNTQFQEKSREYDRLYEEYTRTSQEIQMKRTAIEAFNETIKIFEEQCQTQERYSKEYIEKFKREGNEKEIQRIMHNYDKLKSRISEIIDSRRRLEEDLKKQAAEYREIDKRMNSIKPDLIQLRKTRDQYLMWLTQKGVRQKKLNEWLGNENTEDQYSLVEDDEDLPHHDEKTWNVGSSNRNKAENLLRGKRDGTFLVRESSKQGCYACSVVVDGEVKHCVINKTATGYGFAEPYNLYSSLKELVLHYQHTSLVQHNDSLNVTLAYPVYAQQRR
Sequence of PI3Kδ-p85α (O35904 whole entry): as the sequence (O35904 whole entry) above
Sequence of PI3Kδ-p85α (P27986 whole entry partner): as the sequence (P27986 whole entry partner) above
Sequence of PI3Kδ (murine p110δ-p85α) (O35904 whole entry): as the sequence (O35904 whole entry) above
Sequence of PI3Kδ (murine p110δ-p85α) (P27986 whole entry partner): as the sequence (P27986 whole entry partner) above

CC[C@H](Nc1ncnc2[nH]cnc12)c1nc2cccc(F)c2c(=O)n1-c1ccccc1 [Idelalisib, 5-fluoro-3-phenyl-2-[(1S)-1-(9H-purin-6-ylamino)propyl]quinazolin-4(3H)-one]
IC50 [1]: 19 nM | most potent percent inhibition seen for any non-PI3K kinase [2]: 47% | Ki ([3]; read-out: Ki (inhibition constant)): 1.5 ± 0.1 nM | mode of inhibition (parameter α of the global fit) ([3]; α ≫ 1): ATP-competitive inhibition | recovery of enzyme activity following 1:100 dilution of the enzyme-inhibitor complex (PI3Kδ-p85α): enzyme activity was quickly recovered | off rate kd (ΔABD-p110δ; [4]): 0.00634 s⁻¹ | on rate ka (ΔABD-p110δ; [4]): 5.18e+06 M⁻¹ s⁻¹ | dissociation from the protein during the dissociation phase (ΔABD-p110δ): complete dissociation

COC[C@H]1OC(=O)c2coc3c2[C@@]1(C)C1=C(C3=O)[C@@H]2CCC(=O)[C@@]2(C)C[C@H]1OC(C)=O [wortmannin]
recovery of enzyme activity following 1:100 dilution of the enzyme-inhibitor complex (PI3Kδ-p85α): did not show detectable recovery of activity upon dilution | dissociation from the protein during the dissociation phase (ΔABD-p110δ): no dissociation after 1 h
